As usually defined, the IC50 is the concentration that gives 50% inhibition. Usually GI50 stands for the concentration giving 50% growth inhibition. By inhibition is commonly meant the drop in the measured response relative to a control, in per cent.

Among the data in ChEMBL document CHEMBL6134800, “Applications of innovative synthetic strategies in anticancer drug discovery: The driving force of new chemical reactions” (Bioorg Med Chem Lett, 2025) are IC50, GI50 and inhibition values, retold here.

A short description of data set [1]: Antioxidant activity assessed as hydroxyl radical scavenging activity. The data set is classed as functional.
Data set [2] concerns A549. In words: Growth inhibition of human A549 cells measured for 48 hrs by SRB assay. The data set is classed as functional.
For the next data set, the system named is PC-3. In words: Growth inhibition of human PC-3 cells measured for 48 hrs by SRB assay. The data set is classed as functional. On the technique in general: The SRB assay estimates cell density from bound dye.
In data set [3] the test system is MCF7. In words: Growth inhibition of human MCF7 cells measured for 48 hrs by SRB assay. The data set is classed as functional.
For a further data set, the system named is HepG2. The experiment in a line: Growth inhibition of human HepG2 cells measured for 48 hrs by SRB assay. The data set is classed as functional.
A short description of data set [4]: Antioxidant activity assessed as DPPH radical scavenging activity. The data set is classed as functional. For orientation: Loss of DPPH colour is used to gauge radical scavenging.
The subject of the next data set is BXPC-3. In words: Antiproliferative activity against human BXPC-3 cells assessed as reduction in cell growth incubated for 72 hrs by MTT assay. The note with it: Homo sapiens, BXPC-3, 72 h. The data set is classed as functional, cell-based. In general terms: Tetrazolium assays rely on reduction of a dye to a coloured formazan, in cell work by metabolically active cells.

In data set [5] the test system is A549. The experiment in a line: Cytotoxicity against human A549 cells assessed as reduction in cell viability by MTT assay. The data set is classed as functional, cell-based.
In data set [6] the test system is MCF7. In words: Cytotoxicity against human MCF7 cells assessed as reduction in cell viability by MTT assay. The data set is classed as functional, cell-based.
Data set [7] in a line: Cytotoxicity against human BEAS-2B cells assessed as reduction in cell viability by MTT assay. The data set is classed as toxicity, cell-based.
In data set [8] the test system is HeLa. The experiment in a line: Antiproliferative activity against human HeLa cells assessed as reduction in cell viability incubated for 48 hrs by MTT assay. The data set is classed as functional, cell-based.
Another data set deals with Bacillus subtilis. In words: Antibacterial activity against Bacillus subtilis assessed as reduction in bacterial growth. The data set is classed as functional, organism-based.
A further data set deals with MDA-MB-231. The experiment in a line: Antiproliferative activity against human MDA-MB-231 cells. The data set is classed as functional, cell-based.
In the next data set the test system is T47D. The experiment in a line: Antiproliferative activity against human T47D cells. The data set is classed as functional, cell-based.
The subject of data set [9] is MCF7. In words: Antiproliferative activity against human MCF7 cells. The data set is classed as functional, cell-based.
The subject of another data set is LoVo. In words: Antiproliferative activity against human LoVo cells. The data set is classed as functional, cell-based.
For data set [10], the system named is HCT-116. In words: Antiproliferative activity against human HCT-116 cells. The data set is classed as functional, cell-based.
The subject of data set [11] is HCT-116. In words: Anticancer activity against human HCT-116 cells assessed as inhibition of cell viability at 20 uM relative to control. The data set is classed as functional.
Data set [12] relates to HCT-116. In words: Anticancer activity against human HCT-116 cells assessed as reduction in cell viability. The data set is classed as functional, cell-based.
The test system of data set [13] is HeLa. The experiment in a line: Antiproliferative activity against human HeLa cells assessed as reduction in cell viability incubated for 24 hrs by MTT assay. The data set is classed as functional, cell-based.
Data set [14] has as its system A549. In words: Antiproliferative activity against human A549 cells assessed as reduction in cell viability incubated for 24 hrs by MTT assay. The data set is classed as functional, cell-based. The note with it: A549, 24 h.
The test system of data set [15] is HCT-116. The experiment in a line: Antiproliferative activity against human HCT-116 cells assessed as reduction in cell viability incubated for 24 hrs by MTT assay. The data set is classed as functional, cell-based. The note with it: HCT-116, 24 h.
Data set [16] concerns A549. In words: Cytotoxicity against human A549 cells assessed as reduction in cell growth by resazurin assay. The data set is classed as functional, cell-based.
The next data set has as its system NIH3T3. In words: Cytotoxicity against mouse NIH/3T3 cells assessed as reduction in cell growth by resazurin assay. The data set is classed as functional, cell-based.
Data set [17] deals with Cyclin-dependent kinases regulatory subunit 1/S-phase kinase-associated protein 2 (Homo sapiens) (UniProt P61024+Q13309). The experiment in a line: Inhibition of SKP2/CKS1 (unknown origin) protein-protein interaction at 50 uM relative to control. The data set is classed as protein assay.
Sequence of Cyclin-dependent kinases regulatory subunit 1/S-phase kinase-associated protein 2 (Homo sapiens) (P61024 2-79 limits assumed): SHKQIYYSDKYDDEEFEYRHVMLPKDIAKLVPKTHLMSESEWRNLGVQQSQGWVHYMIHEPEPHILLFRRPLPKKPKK
Sequence of Cyclin-dependent kinases regulatory subunit 1/S-phase kinase-associated protein 2 (Homo sapiens) (Q13309 whole entry partner): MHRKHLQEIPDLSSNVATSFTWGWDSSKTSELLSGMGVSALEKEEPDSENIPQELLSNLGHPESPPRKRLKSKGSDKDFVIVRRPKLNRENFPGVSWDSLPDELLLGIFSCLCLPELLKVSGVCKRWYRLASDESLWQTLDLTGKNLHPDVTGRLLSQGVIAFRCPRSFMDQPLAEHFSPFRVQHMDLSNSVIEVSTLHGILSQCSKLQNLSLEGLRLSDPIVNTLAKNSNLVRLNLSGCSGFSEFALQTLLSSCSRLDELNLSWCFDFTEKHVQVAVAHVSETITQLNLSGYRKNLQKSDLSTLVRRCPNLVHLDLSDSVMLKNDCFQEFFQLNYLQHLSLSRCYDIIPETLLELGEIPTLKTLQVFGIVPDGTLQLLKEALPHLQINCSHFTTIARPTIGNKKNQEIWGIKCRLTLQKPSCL

Molecules are shown by their SMILES. Converted amounts (≈) assume the structure as drawn.

For the compound `CCc1cc(C(=O)c2ccccc2Cl)c(NC(c2cccs2)c2c(O)ccc3ccccc23)s1` (stereo unspecified), the IC50 in data set [1] was 34.8 µM; in data set [4], 32.1 µM. Moreover, the GI50 in the data set with A549 [2], in the data set with PC-3, in the data set on MCF7 [3] and in the data set on HepG2 was below 10 µg/mL throughout.

For `Cc1ccc([C@H]2NC(=O)n3c(cc4ccccc43)C23CC3)cc1` (stereo in doubt; (R)-16a), the IC50 with BXPC-3 was determined as 6.1 µM.

Turning to `COC(=O)c1nc2nc(Oc3ccccc3)c(C#N)c(-c3ccc([N+](=O)[O-])cc3)c2c(N)c1C(=O)OC`, the half-inhibitory concentration (IC50) with A549 [5] came to 8.24 µg/mL (≈ 16.5 µM); in the data set with MCF7 [6], 7.57 µg/mL (≈ 15.2 µM); in data set [7] it was 51.3 µg/mL (≈ 103 µM).

`Cc1nn(-c2ccc(C(C)C)cc2)c(O)c1-c1ccccc1C1=Nc2ccccc2C1(C)C`: the IC50 in the data set with HeLa [8] turned out to be 23.8 µM.

On to `O=C1O[C@H]([C@@H](O)CO)C(O)=C1O` [ASCORBIC ACID], for which the 50% inhibitory concentration (IC50) in data set [1] amounted to 25.1 µM; in data set [4], 27.3 µM. The GI50 with A549 [2], with PC-3, in the data set with MCF7 [3] and in the data set on HepG2 was below 10 µg/mL in each case.

Regarding `CN[C@@H]1[C@@H](O)[C@@H](O[C@@H]2[C@@H](O)[C@H](O[C@H]3O[C@H](CN)CC[C@H]3N)[C@@H](N)C[C@H]2N)OC[C@]1(C)O` [GENTAMICIN C1A], in the data set with Bacillus subtilis, the IC50 worked out at 0.115 µM.

Turning to `C=C1N(S(=O)(=O)c2ccc(C)cc2)c2ccccc2C1(C)N` (racemic), the IC50 is 3.13 µM in the data set with MDA-MB-231; 5.37 µM with T47D; 3.92 µM in the data set on MCF7 [9]; 10.3 µM in the data set with LoVo; 12.6 µM in the data set with HCT-116 [10].

For the compound `COC(=O)c1nc2nc(Oc3ccccc3)c(C#N)c(-c3ccc(OC)cc3)c2c(N)c1C(=O)OC`, the IC50 in the data set with A549 [5] came out at 10.1 µg/mL (≈ 20.9 µM); with MCF7 [6], 48.2 µg/mL (≈ 99.6 µM); in data set [7], 51.3 µg/mL (≈ 106 µM).

`CC(C)OC(=O)C1=CN(c2cccc(Br)c2)CC(O)(c2ccccc2)O1` (stereo unspecified): the inhibition at 20 µM in the data set on HCT-116 [11] is 59%. The IC50 in the data set on HCT-116 [12] was 7.6 µM.

Regarding `CC(C)OC(=O)C1=CN(c2ccc3ccccc3c2)CC(O)(c2ccccc2)O1` (stereo unspecified), in the data set with HCT-116 [11], the inhibition at 20 µM came out at 56%. In addition, the IC50 with HCT-116 [12] worked out at 9.4 µM.

As to `Cc1cc(C(F)(F)F)c2c(n1)-c1ccccc1C2c1ccsc1` (stereo unspecified), the IC50 with HeLa [13] was 2.32 µM; in the data set on A549 [14] it was above 50 µM; in the data set with HCT-116 [15], above 50 µM.

With `CCc1cc(C(=O)c2ccccc2Cl)c(NC(c2ccc(F)cc2)c2c(O)ccc3ccccc23)s1` (stereo unspecified), the IC50 in [1] was found to be 31.3 µM; in data set [4], 29.8 µM. Moreover, the GI50 in the data set with A549 [2], in the data set with PC-3, with MCF7 [3] and in the data set with HepG2 was below 10 µg/mL each time.

Consider `Nc1ccn([C@@H]2O[C@H](CO)[C@@H](O)C2(F)F)c(=O)n1` [GEMCITABINE], for which the IC50 with BXPC-3 came out at 2.3 µM.

For the compound `Cc1nn(-c2ccc(C#N)cc2)c(O)c1-c1ccccc1C1=Nc2ccccc2C1(C)C`, the IC50 in the data set on HeLa [8] was found to be 27.3 µM.

Turning to `Cc1ccc([C@@H]2NC(=O)n3c(cc4ccccc43)C23CC3)cc1`, the IC50 in the data set on BXPC-3 came out at 1.7 µM.

As to `O=C(CCCCCCC(=O)Nc1ccccc1)NO` [VORINOSTAT], the IC50 with LoVo was found to be 0.74 µM; in the data set with HCT-116 [10] it was 10.1 µM.

Regarding `COc1cccc2c1C(=O)c1c(O)c3c(c(O)c1C2=O)C[C@@](O)(C(=O)CO)C[C@@H]3O[C@H]1C[C@H](N)[C@H](O)[C@H](C)O1` [DOXORUBICIN], the values for the IC50 (with A549 [16]; in the data set with NIH3T3; in [7]) were 0.31 µM, 5.65 µM and 4.18 µg/mL (≈ 7.69 µM), respectively. The GI50 in the data set with A549 [2], in the data set on PC-3, in the data set on MCF7 [3] and in the data set on HepG2 was below 10 µg/mL in each case.

In the case of `COc1cc(OC)c(-c2cc(CC3c4ccccc4C(=O)N3c3ccc(Br)cc3)nc3ncnn23)c(OC)c1` (stereo unspecified), in [17], the inhibition was 57%.

For `C=C1N(S(=O)(=O)c2ccc(C)cc2)c2ccccc2[C@@]1(C)N`, the half-maximal inhibitory concentration (IC50) was 6.66 µM in the data set on MDA-MB-231; 17.7 µM in the data set on T47D; 16.1 µM with MCF7 [9]; above 25 µM with LoVo; above 25 µM with HCT-116 [10].

Turning to `O=NN(CCCl)C(=O)NCCCl` [CARMUSTINE], the IC50 is 6.35 µg/mL (≈ 29.7 µM) in the data set on A549 [5], 9.34 µg/mL (≈ 43.6 µM) with MCF7 [6] and 6.52 µg/mL (≈ 30.5 µM) in data set [7].

Consider `COc1cc(OC)c(-c2cc(CC3c4ccccc4C(=O)N3c3ccc(C)cc3)nc3ncnn23)c(OC)c1` (stereo unspecified), for which the inhibition in data set [17] was found to be 45%.
